Experimental data as given in paper PMC11483813, “Bombesin-Targeted Delivery of β-Carboline-Based Ir(III) and Ru(II) Photosensitizers for a Selective Photodynamic Therapy of Prostate Cancer” (Inorganic Chemistry, 2024).

Test: Photocatalytic singlet oxygen generation (ABDA probe)
Assay type: physicochemical
Details: H2O:DMSO (1:1), blue light 460 nm, rose bengal as reference
From the text: Singlet oxygen is thought to be the main cytotoxic species in type II PDT processes. Therefore, we determined the ability of Ir-Me and Ru-Me to generate ^1O2 under photocatalytic conditions, as illustrative examples of our PSs. As shown in Figures 6 and S51, we monitored by means of UV–vis spectroscopy the oxidation of 9,10-anthracenediyl bis(methylene)dimalonic acid (ABDA, 8x 10^–5 M) in the presence of atmospheric oxygen, using Ir-Me (10^–5 M) as the PS and H2O:DMSO (1:1) as the solvent system under blue light exposure (λir = 460 nm). […] Moreover, the singlet oxygen quantum yield values (ΦΔ) of Ir-Me and Ru-Me were determined using rose bengal (ΦΔ = 0.75) as the reference. […]
an integrating sphere. For the determination of the luminescence lifetime, the fluorescence decay was measured on a FLS980 spectrofluorometer equipped with a TSCPC laser (Ir(III) complexes: λ ex = 405 nm; Ru(II) complexes: λ ex = 450 nm) and a REDPMT detector. The F980 spectrometer operating software was used to collect and process luminescence lifetime data.
Photostability of Ir(III) and Ru(II) complexes. The photostability of Ir(III) or Ru(II) complexes was monitored by 1H RMN. […]
Singlet oxygen generation. The capacity of Ir-Me and Ru-Me to generate singlet oxygen ( 1O2) was determined by an indirect method using 9,10-anthracenediyl-bis(methylene) dimalonic acid (ABDA) as a probe. […]

- singlet oxygen quantum yield (ΦΔ): 4%
Compound: COC(=O)/C=C/c1ccc(-c2nccc3c4ccccc4n(C)c23)nc1.[Cl-].[Ir+3].[c-]1ccccc1-c1ccccn1.[c-]1ccccc1-c1ccccn1 [Ir-Me]
